{"source": "patent US11000039B2", "about": "“Composition for controlling nematode comprising grammicin compound as effective ingredient and uses thereof” (INDUSTRY FOUNDATION OF CHONNAM NATIONAL UNIVERSITY, priority 2016, dated 2021)", "key": {"[1]": {"test_system": "sweet potato root knot nematode (M. incognita) 2nd stage juveniles", "assay": "microbe, parasite or virus in culture", "settings": "for LC50: Meloidogyne incognita, read-out: LC50 M. incognita 72 h", "procedure": "The three layers were finally applied at concentrations of 15.6, 31.3, 62.5, 125, 250, 500, or 1,000 μg/ml. As a control group, treatment with 1% acetone and methanol was carried out, and, after the treatment, the 96-well plate was shaken for 30 seconds so that the test compound is mixed well. Thereafter, the plate was added to a plastic container having relative humidity of 100% and stored at room temperature. To obtain eggs of a root knot nematode from roots of tomato infected by root knot nematode, plant roots were washed with tap water to remove adhering soil and cut into 1 cm pieces. Eggs were extracted in 0.5% sodium hypochlorite solution for 1 min and collected by passage through 45 and 25 μm sieves. Second-stage juveniles (J2) were allowed to hatch in modified Baermann funnels at 20° C.\nNinety nine μl of 50 2nd stage juveniles of sweet potato root knot nematode were added to each well of a 96-well plate, and then, according to a treatment of 1% solvent extract, the final volume per well was adjusted to 100 μl. […] 72 Hours after the treatment with a test compound, mortality was determined under an optical inverted microscope by using the equation shown below. As for the mortality, the linear nematode showing no movement was taken as dead nematode, the nematode showing movement of flexible curve was taken as live nematode, and the mortality was examined using the following equation. Mortality (%)=[Mortality percentage in treatment−mortality percentage of negative control/(100−mortality percentage in negative control)]×100\nTo determine the mortality and activity of inhibiting egg hatching of the purified compound, the compound was dissolved in methanol and trans-cinnamaldehyde as a control agent was dissolved in ethanol and used for the experiment. […] Furthermore, the activity of inhibiting egg hatching of sweet potato root knot nematode (M. incognita) was also examined at the same concentration. As a non-treatment group, 1% methanol and ethanol were used, and, according to the method explained above, the mortality and activity of inhibiting egg hatching were examined. The experiments were carried out in triplicate. The mortality was determined 3 days after the treatment of a test compound while the rate of inhibiting egg hatching was determined 14 days after the treatment of a test compound. The rate of inhibiting egg hatching was calculated based on the following equation. Egg hatching inhibitory activity (%)=[(C−T)/C]×100,"}, "[2]": {"test_system": "carrot root knot nematode (M. hapla) 2nd stage juveniles", "assay": "Mortality against 2nd stage juveniles of carrot root knot nematode", "set-up": "species or system Meloidogyne hapla", "settings": "72 h; for LC50: 2nd stage juveniles"}, "[3]": {"test_system": "eggs of sweet potato root knot nematode (M. incognita)", "assay": "Egg hatching inhibitory activity against sweet potato root knot nematode", "set-up": "species or system Meloidogyne incognita", "settings": "336 h, 14 days after treatment, read-out: Rate of inhibiting egg hatching; for inhibition at 3.1 µg/mL: 3.1 μg/ml; for inhibition at 25 µg/mL: 25 μg/ml", "procedure": "The experiments were carried out in triplicate. […] Egg hatching inhibitory activity (%)=[(C−T)/C]×100,\nC=Egg hatching rate of control group*, T=Egg hatching rate of treatment group *Egg hatching rate (%)=Number of juveniles/[Number of egg+Number of juveniles]×100"}, "colon cancer cell SW.71": {"test_system": "colon cancer cell SW.71", "assay": "MTT cell viability assay (human cytotoxicity)", "settings": "for Cell viability compared to the non-treatment group / Cytotoxicity, in words: 24 hours; for Cytotoxicity, in words: test concentration 0.1 to 10 μg/ml", "procedure": "The colon cancer cell SW.71 as a cell line used for the experiment was kept in −196° C. liquid nitrogen tank until use. The colon cancer cell SW.71 was added, in RPMI-1640 (Life Technologies Inc., USA) medium, with 10% FBS (fetal bovine serum, Gibco) and 1% penicillin-streptomycin, cultured for 72 hours in an incubator at condition of 37° C., 5% CO2, and then used. As for the MTT reagent, thiazolyl blue tetrazolium bromide was used, and, after dissolving it in PBS (phosphate buffer saline) to have final concentration of 5 mg/ml, it was kept at 4° C. under light-shielding condition. The colon cancer cell SW.71 was inoculated, in an amount of 130 μl, to a 96-well plate to have concentration of 5×10^3 or 1×10^4 cells/well. […] After culturing the cells for 24 hours, the MTT solution was added in an amount of 14.5 μl for each well followed by culture for 2 hours or longer at 37° C. The medium was carefully removed and DMSO was added in an amount of 108.5 μl per well to terminate the reaction followed by stirring using a plate shaker for 30 minutes at room temperature, dark conditions. Thereafter, by using a microplate ELISA reader, absorbance at a wavelength of 540 nm was measured, and the cell viability after culture for 24 hours was examined. For the non-treatment group, 1% MeOH was added to a DMEM medium. All the experiments were repeated in triplicate."}}}
{"smiles": "O=C/C=C/c1ccccc1", "note": "[trans-cinnamaldehyde]", "values": [{"measurement": "LC50", "setting": "[1]; 72 h", "value": 18.3, "unit": "µg/mL"}, {"measurement": "LC50", "setting": "[2]", "value": 8.56, "unit": "µg/mL"}, {"measurement": "inhibition at 3.1 µg/mL", "setting": "[3]", "value": 31.3, "unit": "%"}, {"measurement": "inhibition at 25 µg/mL", "setting": "[3]", "value": 65, "unit": "%"}]}
{"smiles": "O=C1C=C2C(=CCOC2O)O1", "note": "(stereo not shown) [patulin]", "values": [{"measurement": "Mortality against root knot nematodes, in words (summary)", "setting": "[1]", "value": "almost no activity"}, {"measurement": "mortality at 100 µg/mL", "setting": "[1]", "value": 38.7, "unit": "%"}, {"measurement": "Cell viability compared to the non-treatment group", "setting": "colon cancer cell SW.71; 0.1 μg/ml, 1×10^4 cells/well", "value": 66.2, "unit": "%"}, {"measurement": "Cell viability compared to the non-treatment group", "setting": "colon cancer cell SW.71; 0.1 μg/ml, 5×10^3 cells/well", "value": 72.2, "unit": "%"}, {"measurement": "Cell viability compared to the non-treatment group", "setting": "colon cancer cell SW.71; 0.5 μg/ml, 1×10^4 cells/well", "value": 80.5, "unit": "%"}, {"measurement": "Cell viability compared to the non-treatment group", "setting": "colon cancer cell SW.71; 0.5 μg/ml, 5×10^3 cells/well", "value": 72.1, "unit": "%"}, {"measurement": "Cell viability compared to the non-treatment group", "setting": "colon cancer cell SW.71; 1 μg/ml, 1×10^4 cells/well", "value": 75.3, "unit": "%"}, {"measurement": "Cell viability compared to the non-treatment group", "setting": "colon cancer cell SW.71; 1 μg/ml, 5×10^3 cells/well", "value": 42.1, "unit": "%"}, {"measurement": "Cell viability compared to the non-treatment group", "setting": "colon cancer cell SW.71; 5 μg/ml, 1×10^4 cells/well", "value": 58.4, "unit": "%"}, {"measurement": "Cell viability compared to the non-treatment group", "setting": "colon cancer cell SW.71; 5 μg/ml, 5×10^3 cells/well", "value": 43.5, "unit": "%"}, {"measurement": "Cell viability compared to the non-treatment group", "setting": "colon cancer cell SW.71; 10 μg/ml, 1×10^4 cells/well", "value": 27.6, "unit": "%"}, {"measurement": "Cell viability compared to the non-treatment group", "setting": "colon cancer cell SW.71; 10 μg/ml, 5×10^3 cells/well", "value": 31.4, "unit": "%"}]}
{"smiles": "O=C1C=C2C(O)C=COC2O1", "note": "(stereo not shown) [grammicin]", "values": [{"measurement": "Mortality against root knot nematodes, in words (summary)", "setting": "[1]", "value": "very high mortality"}, {"measurement": "mortality at 12.5 µg/mL", "setting": "[1]; 72 h", "value": 52.8, "unit": "%"}, {"measurement": "mortality at 50 µg/mL", "setting": "[1]; 72 h", "value": 100, "unit": "%"}, {"measurement": "LC50", "setting": "[1]; 72 h", "value": 15.9, "unit": "µg/mL"}, {"measurement": "mortality at 25 µg/mL", "setting": "[2]; 25 μg/ml, 3 days after treatment", "value": 62.4, "unit": "%"}, {"measurement": "mortality at 50 µg/mL", "setting": "[2]; 50 μg/ml, 3 days after treatment", "value": 100, "unit": "%"}, {"measurement": "LC50", "setting": "[2]", "value": 3.12, "unit": "µg/mL"}, {"measurement": "inhibition at 3.1 µg/mL", "setting": "[3]", "value": 68.2, "unit": "%"}, {"measurement": "inhibition at 25 µg/mL", "setting": "[3]", "value": 91.4, "unit": "%"}, {"measurement": "Cytotoxicity for colon cancer cells, in words (summary)", "setting": "colon cancer cell SW.71; at a test concentration", "value": "no toxicity"}, {"measurement": "Cytotoxicity, in words", "setting": "colon cancer cell SW.71; 1×10^4 cells/well", "value": "no cytotoxicity"}, {"measurement": "Cytotoxicity, in words", "setting": "colon cancer cell SW.71; 5×10^3 cells/well", "value": "no cytotoxicity"}]}
